# Legend:
# [1] = molecular target: T1, LXRβ ligand-binding domain (LBD) (Homo sapiens, UniProt P55055, DUP175-175); assay: LXR Gal4 reporter transient transfection assay (M2H), Gal4β LBD; type: cell-based; details: HEK293 cells; for EC50: read-out: M2H Gal4β LBD activity range (EC50)
# T1 construct: LXRβ (amino acids 156-461); expressed in transfected cells; host or cells: HEK293
# T1 sequence (P55055 with tags, fused parts or gaps DUP175-175): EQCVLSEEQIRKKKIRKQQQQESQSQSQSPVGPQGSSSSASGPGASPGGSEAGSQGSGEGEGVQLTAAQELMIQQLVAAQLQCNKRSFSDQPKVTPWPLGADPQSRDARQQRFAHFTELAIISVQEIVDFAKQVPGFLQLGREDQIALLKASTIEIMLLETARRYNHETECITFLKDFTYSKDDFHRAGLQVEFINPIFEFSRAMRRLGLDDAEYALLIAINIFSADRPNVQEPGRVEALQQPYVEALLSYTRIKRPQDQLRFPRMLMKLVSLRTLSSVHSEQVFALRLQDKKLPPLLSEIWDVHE
# Procedure: (§1) The tested compounds were usually dissolved, tested and stored as 20 mM stock solutions in DMSO. Since sulfonyl acetic acid derivatives tend to decarboxylate under these conditions, these stock solutions were prepared, tested and stored as 20 mM DMSO stock solutions containing 100 mM trifluoroacetic acid (5 equivalents). Sulfonyl acetic acid derivatives are shelf stable as solid at rt for long time as reported by Griesbrecht et al. (Synlett 2010:374) or Faucher et al. (J. Med. Chem. 2004; 47:18).
# (§2) LXR Gal4 Reporter Transient Transfection Assays
# (§3) LXRα and LXRβ activity status was determined via detection of interaction with coactivator and corepressor proteins in mammalian two-hybrid experiments (M2H). For this, via transient transfection the full length (FL) proteins of LXRα (amino acids 1-447; NP005684; SEQ ID NO:7) or LXRβ-(amino acids 1-461; NP009052; SEQ ID NO:8) or the ligand-binding domains (LBD) of LXRα (amino acids 155-447 SEQ ID NO:3) or LXRβ (amino acids 156-461; SEQ ID NO:4) were expressed from pCMV-AD (Stratagene) as fusions to the transcriptional activation domain of NFkB. As cofactors, domains of either the steroid receptor coactivator 1 (SRC1; amino acids 552-887; SEQ ID NO:5) or of the corepressor NCoR (amino acids 1903-2312 SEQ ID NO:6) were expressed as fusions to the DNA binding domain of the yeast transcription factor GAL4 (from pCMV-BD; Stratagene). Interaction was monitored via activation of a coexpressed Firefly Luciferase Reporter gene under control of a promoter containing repetitive GAL4 response elements (vector pFRLuc; Stratagene). Transfection efficiency was controlled via cotransfection of constitutively active pRL-CMV Renilla reniformis luciferase reporter (Promega). HEK293 cells were grown in minimum essential medium (MEM) with 2 mM L-glutamine and Earle's balanced salt solution supplemented with 8.3% fetal bovine serum, 0.1 mM non-essential amino acids, 1 mM sodium pyruvate, at 37° C. in 5% CO2. 3.5×10^4 cells/well were plated in 96-well cell culture plates in growth medium supplemented with 8.3% fetal bovine serum for 16-20 h to ˜90% confluency. For transfection, medium was taken off and LXR and cofactor expressing plasmids as well as the reporter plasmids are added in 30 μL OPTIMEM/well including polyethylene-imine (PEI) as vehicle. Typical amounts of plasmids transfected/well: pCMV-AD-LXR (5 ng), pCMV-BD-cofactor (5 ng), pFR-Luc (100 ng), pRL-CMV (0.5 ng). Compound stocks were prepared in DMSO, prediluted in MEM to a total volume of 120 μL, and added 4 h after addition of the transfection mixture (final vehicle concentration not exceeding 0.2%). Cells were incubated for additional 16 h, lysed for 10 min in 1× Passive Lysis Buffer (Promega) and Firefly and Renilla luciferase activities were measured sequentially in the same cell extract using buffers containing D-luciferine and coelenterazine, respectively. Measurements of luminescence were done in a BMG-Iuminometer.
# [2] = molecular target: T2, LXRα ligand-binding domain (LBD) (Homo sapiens, UniProt Q13133); assay: LXR Gal4 reporter transient transfection assay (M2H), Gal4α LBD; type: cell-based; details: HEK293 cells; for EC50: read-out: M2H Gal4α LBD activity range (EC50)
# T2 construct: expressed in transfected cells; host or cells: HEK293
# T2 sequence (Q13133 155-447): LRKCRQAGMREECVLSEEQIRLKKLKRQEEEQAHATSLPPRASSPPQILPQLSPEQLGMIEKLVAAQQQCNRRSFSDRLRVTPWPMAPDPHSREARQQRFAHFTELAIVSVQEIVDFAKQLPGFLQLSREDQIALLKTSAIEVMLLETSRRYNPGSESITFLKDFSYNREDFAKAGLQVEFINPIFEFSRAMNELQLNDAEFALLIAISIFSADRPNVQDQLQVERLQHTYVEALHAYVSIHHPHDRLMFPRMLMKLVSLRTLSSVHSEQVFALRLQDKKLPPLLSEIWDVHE
# Procedure: as §1, §2, §3
# [3] = molecular target: T3, GST-LXRβ ligand-binding domain (Homo sapiens, UniProt P55055, DUP175-175); assay: TR-FRETβ activity assay (LXRβ-LBD / NCoA3 coactivator peptide, prestimulated with 24(S)-25-epoxycholesterol); type: biochemical; design: key to behavior in FRET assay: ag=agonist; ia=inverse agonist; details: for EC50: 1 μM 24(S)-25-epoxycholesterol as prestimulating agonist, read-out: FRETβ activity range (EC50); for behavior in FRET assay: agonist or inverse agonist
# T3 construct: amino acids 156-461; NP009052; made in house; host or cells: E. coli
# T3 sequence (P55055 with tags, fused parts or gaps DUP175-175): T1 sequence (P55055 with tags, fused parts or gaps DUP175-175)
# How it was run: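 E. coli-expressed GST-LXRβ LBD (aa 156-461) at 76 nM with biotinylated NCoA3 coactivator peptide (400 nM), in 240 mM KCl, BSA and Triton-X-100. Anti-GST-Tb cryptate/streptavidin-XL665 TR-FRET after 1 h equilibration at 4 °C, excitation 340 nm, emission 615 and 665 nm. Run in triplicate.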
Structure (SMILES),EC50 [1] [nM],EC50 [2] [nM],EC50 [3] [nM],behavior in FRET assay [3],M2H Gal4β LBD activity range (EC50) [1],M2H Gal4α LBD activity range (EC50) [2]
Cc1cc(C)c(S(=O)(=O)N(Cc2ccc(-c3cccc(C4(C(=O)O)CCOCC4)c3)cc2)Cc2ccc(C(F)(F)F)o2)c(C)c1 [7/8],100 to 1000,100 to 1000,> 10000,ia,,
Cc1cc(C)c(S(=O)(=O)N(Cc2ccc(-c3cccc([S+]([O-])CC(=O)O)c3)cc2)Cc2ccc(C(F)(F)F)o2)c(C)c1 (centres unmarked) [11/17],1000 to 10000,1000 to 10000,1000 to 10000,ia,,
Cc1cc(C)c(S(=O)(=O)N(Cc2ccc(N3CCCC(C(C)(C)C(=O)O)C3)cc2)Cc2ccc(C(F)(F)F)o2)c(C)c1 (centres unmarked) [16/2],100 to 1000,100 to 1000,> 10000,ia,,
Cc1cc(C)c(S(=O)(=O)N(Cc2ccc(C3=CS(=O)(=O)C(CC(=O)O)=C3)cc2)Cc2ccc(C(F)(F)F)o2)c(C)c1 [25/3],100 to 1000,100 to 1000,1000 to 10000,ia,,
Cc1cc(C)c(S(=O)(=O)N(Cc2ccc(-c3ccc(OCC(=O)O)cc3)cc2)Cc2ccc(C(F)(F)F)o2)c(C)c1 [C7/11],100 to 1000,100 to 1000,1000 to 10000,ia,,
CCOC(=O)Cc1cccc(-c2ccc(CN(Cc3ccc(C(F)(F)F)o3)S(=O)(=O)c3c(C)cc(C)cc3C)cc2)c1 [Example 1],< 100,100 to 1000,> 10000,ia,,
Cc1cc(C)c(S(=O)(=O)N(Cc2ccc(C(F)(F)F)o2)C(C)c2ccc(-c3cccc(CC(=O)O)c3)cc2)c(C)c1 (centres unmarked) [Example 2/1],,,1000 to 10000,ia,inactive,inactive
"Cc1cc(C)c(S(=O)(=O)N(Cc2ccc(-c3cccc(S(=O)(=O)O)c3)cc2)Cc2ccc(C(F)(F)F)o2)c(C)c1 [Example 3, 4′-(((2,4,6-Trimethyl-N-((5-(trifluoromethyl)furan-2-yl)methyl)phenyl)sulfon-amido)methyl)-[1,1′-biphenyl]-3-sulfonic acid]",,,1000 to 10000,ia,inactive,inactive
CC(=O)NS(=O)(=O)c1cccc(-c2ccc(CN(Cc3ccc(C(F)(F)F)o3)S(=O)(=O)c3c(C)cc(C)cc3C)cc2)c1 [Example 3/1],< 100,100 to 1000,> 10000,ia,,
"Cc1cc(C)c(S(=O)(=O)N(Cc2ccc(N3CCCN(CC(=O)O)C3=O)cc2)Cc2ccc(C(F)(F)F)o2)c(C)c1 [Example 16, 2-(2-Oxo-3-(4-(((2,4,6-trimethyl-N-((5-(trifluoromethyl)furan-2-yl)methyl)phenyl)sulfon-amido)methyl)phenyl)tetrahydropyrimidin-1(2H)-yl)acetic acid]",1000 to 10000,,> 10000,ia,,inactive
Cc1cc(C)c(S(=O)(=O)N(Cc2ccc(N3CCCC(CC(=O)O)C3=O)cc2)Cc2ccc(C(F)(F)F)o2)c(C)c1 (centres unmarked) [Example 16/1],100 to 1000,1000 to 10000,> 10000,ia,,

# Now from value to compound:
EC50 [1] [nM],EC50 [2] [nM],EC50 [3] [nM],behavior in FRET assay [3],M2H Gal4β LBD activity range (EC50) [1],M2H Gal4α LBD activity range (EC50) [2],Structure (SMILES)
100 to 1000,100 to 1000,1000 to 10000,ia,,,Cc1cc(C)c(S(=O)(=O)N(Cc2ccc(-c3cccc(CC(=O)O)c3)cc2)Cc2cccc(Br)c2)c(C)c1 [2/3]
< 100,100 to 1000,100 to 1000,ia,,,Cc1cc(C)c(S(=O)(=O)N(Cc2ccc(-c3cccc(CC(=O)O)c3)cc2)Cc2cccc(C(F)(F)F)c2)c(C)c1 [2/4]
100 to 1000,100 to 1000,1000 to 10000,ia,,,Cc1cc(C)c(S(=O)(=O)N(Cc2ccc(-c3cccc(OCC(=O)O)c3)cc2)Cc2ccc(C(F)(F)F)o2)c(C)c1 [5/3]
100 to 1000,100 to 1000,100 to 1000,ia,,,Cc1cc(C)c(S(=O)(=O)N(Cc2ccc(-c3cccc(C(F)(F)C(=O)O)c3)cc2)Cc2ccc(C(F)(F)F)o2)c(C)c1 [5/4]
100 to 1000,100 to 1000,1000 to 10000,ia,,,Cc1cc(C)c(S(=O)(=O)N(Cc2ccc(-c3cccc(S(=O)(=O)CCCC(=O)O)c3)cc2)Cc2ccc(C(F)(F)F)o2)c(C)c1 [7/2]
< 100,< 100,100 to 1000,ia,,,Cc1cc(C)c(S(=O)(=O)N(Cc2ccc(-c3cccc(C(C)C(=O)O)c3)cc2)Cc2ccc(C(F)(F)F)o2)c(C)c1 (centres unmarked) [7/4]
< 100,100 to 1000,100 to 1000,ia,,,Cc1cc(C)c(S(=O)(=O)N(Cc2ccc(-c3cccc(C4(C(=O)O)CC4)c3)cc2)Cc2ccc(C(F)(F)F)o2)c(C)c1 [7/6]
< 100,100 to 1000,100 to 1000,ia,,,Cc1cc(C)c(S(=O)(=O)N(Cc2ccc(-c3cc(F)cc(C4(C(=O)O)CC4)c3)cc2)Cc2ccc(C(F)(F)F)o2)c(C)c1 [7/7]
< 100,100 to 1000,1000 to 10000,ia,,,COc1ccc(-c2ccc(CN(Cc3ccc(C(F)(F)F)o3)S(=O)(=O)c3c(C)cc(C)cc3C)cc2)cc1C(C)(C)C(=O)O [7/9]
100 to 1000,1000 to 10000,1000 to 10000,ia,,,COc1ccc(C(C)(C)C(=O)O)cc1-c1ccc(CN(Cc2ccc(C(F)(F)F)o2)S(=O)(=O)c2c(C)cc(C)cc2C)cc1 [7/10]
< 100,100 to 1000,100 to 1000,ia,,,Cc1cc(C)c(S(=O)(=O)N(Cc2ccc(-c3cncc(C(C)(C)C(=O)O)c3)cc2)Cc2ccc(C(F)(F)F)o2)c(C)c1 [11/18]
100 to 1000,1000 to 10000,< 100,ia,,,"COC(=O)CS(=O)(=O)c1cccc(-c2ccc(CN(Cc3ccc(C(F)(F)F)o3)S(=O)(=O)c3c(C)cc(C)cc3C)cc2)c1 [Example 4, Methyl 2-((4′-(((2,4,6-trimethyl-N-((5-(trifluoromethyl)furan-2-yl)methyl)phenyl)sulfon-amido)methyl)-[1,1′-biphenyl]-3-yl)sulfonyl)acetate]"

# Reference: patent publication US20200115357A1, “LIVER X RECEPTORS (LXR) MODULATORS” (Phenex-FXR GmbH, priority 2017, published 2020)
